Among the test systems are RXF 393; A549; SF-539; ACHN; HCC 2998; SF-295; COLO 205; U-251; TK-10; UO-31; RPMI-8226; K562; EKVX; MOLT-4; SNB-19; LOX IMVI; SK-OV-3; HCT-116; SNB-75; CCRF-CEM.
What all share (experiment): DTP human tumour cell line panel, 48 h

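Cells were grown in 96-well plates and exposed to each compound for 48 hours at five concentrations; endpoints were interpolated linearly between bracketing concentrations, or set to the highest concentration if not reached. GI50 = concentration required for 50% inhibition of growth.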 Calls of active or inactive are those of the source. No stated cut-off is given here; in the data, active = GI50 up to about 1.1 µM and inactive = higher.

As a reminder, the GI50 is the concentration at which growth is held to half of that of the control. For the compound `COc1ccc(-c2cc(-c3ccco3)c(C#N)c(=S)n2C2OC(COC(C)=O)C(OC(C)=O)C(OC(C)=O)C2OC(C)=O)cc1` (stereo not drawn), the GI50 in the test with RXF 393 was 9.53 µM (inactive); in the test with A549 it was 5.9 µM (inactive); in the test with SF-539 it was 1.85 µM (inactive); in the test with ACHN it was 6.82 µM (inactive); in the test with HCC 2998, 14.9 µM (inactive); in the test on SF-295, 1.96 µM (inactive). Further, the GI50 was 4.36 µM (inactive) in the test with COLO 205; 5.94 µM (inactive) in the test on U-251; 30.2 µM (inactive) in the test on TK-10; 13.7 µM (inactive) in the test with UO-31; 2.96 µM (inactive) in the test with RPMI-8226; 2.43 µM (inactive) in the test with K562. For the same compound, the GI50 with EKVX is 13.5 µM (inactive); with MOLT-4 it was 12.3 µM (inactive); in the test on SNB-19 it was 5.66 µM (inactive); in the test on LOX IMVI it was 3.64 µM (inactive); with SK-OV-3, 13.8 µM (inactive); in the test on HCT-116 it was 6.79 µM (inactive). In the test with SNB-75, the GI50 was 5.85 µM (inactive).

Turning to `CC(=O)Nc1nc(Cl)cc(NCC2(CO)CCC2)n1`, the GI50 in the test with RXF 393, with A549, with ACHN, in the test on HCC 2998, in the test with SF-295 and in the test with COLO 205 was > 100 µM (inactive) in each case. Further, the GI50 in the test with U-251, in the test on UO-31, in the test with RPMI-8226, in the test with K562, in the test with EKVX and in the test with CCRF-CEM was > 100 µM (inactive) in each case. For the same compound, the GI50 in the test on MOLT-4, with SNB-19, with LOX IMVI, with SK-OV-3, in the test with HCT-116 and in the test with SNB-75 was > 100 µM (inactive) throughout.

With `CS/C(=N/C(=O)c1ccccc1Cl)SCCS/C(=N\C(=O)c1ccccc1Cl)SC`, the GI50 in the test on RXF 393, in the test on A549, with SF-539, with ACHN, in the test on HCC 2998 and in the test with SF-295 was > 100 µM (inactive) throughout. The GI50 with COLO 205, in the test on U-251, in the test with TK-10, in the test with UO-31, in the test with RPMI-8226 and with K562 was > 100 µM (inactive) in each case. The GI50 in the test with EKVX, with CCRF-CEM, in the test with MOLT-4, in the test on SNB-19, with LOX IMVI and in the test with HCT-116 was > 100 µM (inactive) each time. Moreover, the GI50 in the test with SNB-75 was > 100 µM (inactive).

In the case of `CC(=O)NC1C(OCc2ccccc2)OC(CO)C(O)C1OC(C)C(=O)NC(C(=O)NC(CCC(=O)NCCCCNc1c2ccccc2nc2cccc([N+](=O)[O-])c12)C(N)=O)C(C)C` (stereo not drawn), the GI50 in the test with RXF 393 is 1.56 µM (inactive); with A549, 1.29 µM (inactive); in the test with SF-539, 3.3 µM (inactive); in the test with ACHN it was 1.97 µM (inactive); in the test with HCC 2998, 1.01 µM (active); with SF-295, 4.99 µM (inactive). Also, the GI50 is 1.05 µM (active) in the test on COLO 205; 3.21 µM (inactive) in the test on U-251; 3.1 µM (inactive) with TK-10; 2.89 µM (inactive) in the test with UO-31; 0.76 µM (active) with RPMI-8226; 0.458 µM (active) in the test on K562. For the same compound, the GI50 is 2.65 µM (inactive) with EKVX; 0.515 µM (active) with MOLT-4; 4.84 µM (inactive) in the test on SNB-19; 1.67 µM (inactive) in the test on LOX IMVI; 8.73 µM (inactive) in the test with SK-OV-3; 0.975 µM (active) with HCT-116. For the same compound, the GI50 in the test with SNB-75 is 2.7 µM (inactive).

Take `Cc1ccc(C(=O)O)c(/C=C2\Cc3ccc(C)cc3C2=O)c1`: the GI50 in the test with RXF 393 is 42.3 µM (inactive); in the test with A549 it was 91.2 µM (inactive); with SF-539, 20 µM (inactive); in the test with ACHN, 55.2 µM (inactive); in the test with HCC 2998, 38.9 µM (inactive); with SF-295, 38.1 µM (inactive). The GI50 in the test with COLO 205 was 51.4 µM (inactive); with U-251, 34 µM (inactive); in the test with TK-10 it was > 100 µM (inactive); in the test with UO-31, 62.1 µM (inactive); in the test with RPMI-8226, 19.5 µM (inactive); in the test on K562 it was 39.9 µM (inactive). The GI50 in the test on EKVX is 98.9 µM (inactive); in the test with CCRF-CEM it was 51.3 µM (inactive); with MOLT-4 it was 33.6 µM (inactive); in the test on SNB-19, 45.1 µM (inactive); with LOX IMVI it was 33.3 µM (inactive); in the test on HCT-116, 44.2 µM (inactive). The GI50 with SNB-75 is 34 µM (inactive).

As for `COc1ccc2cc(NC(=O)N/N=C\c3ccc([N+](=O)[O-])cc3)ccc2c1`, the GI50 in the test on RXF 393 is 20.4 µM (inactive); in the test on A549, 34.1 µM (inactive); with ACHN, 37.6 µM (inactive); in the test on HCC 2998 it was 12.9 µM (inactive); with SF-295, 25.9 µM (inactive); in the test with COLO 205 it was > 100 µM (inactive). Moreover, the GI50 with U-251 is 29.9 µM (inactive); in the test on UO-31 it was 17.1 µM (inactive); in the test on RPMI-8226, 35.7 µM (inactive); with K562, 80.4 µM (inactive); in the test on EKVX, 81.8 µM (inactive); in the test on CCRF-CEM it was > 100 µM (inactive). Further, the GI50 with MOLT-4 is > 100 µM (inactive); with SNB-19 it was 20.4 µM (inactive); with LOX IMVI, > 100 µM (inactive); in the test on SK-OV-3 it was 31 µM (inactive); in the test on HCT-116, 53.3 µM (inactive); in the test with SNB-75, 21.3 µM (inactive).

Take `C/C(=C\CBr)CCC(Br)C(C)(C)Br` (stereo not drawn): the GI50 with RXF 393, in the test with A549, in the test on SF-539, in the test with ACHN, in the test with HCC 2998 and with SF-295 was > 100 µM (inactive) in each case. The GI50 with COLO 205, in the test with U-251, in the test on TK-10, in the test on UO-31, in the test on RPMI-8226 and in the test with K562 was > 100 µM (inactive) in each case. Besides, the GI50 in the test on EKVX, in the test with CCRF-CEM, in the test with MOLT-4, in the test with SNB-19, in the test with SK-OV-3 and in the test on HCT-116 was > 100 µM (inactive) each time. The GI50 in the test on SNB-75 is > 91.8 µM (inactive).

Consider `CNS(=O)(=O)NNS(=O)(=O)c1cccc([N+](=O)[O-])c1`, for which the GI50 with RXF 393, with A549, in the test on SF-539, in the test on ACHN, in the test on HCC 2998 and in the test on SF-295 was > 100 µM (inactive) each time. The GI50 in the test on COLO 205, in the test with U-251, in the test with TK-10, with UO-31, with RPMI-8226 and with K562 was > 100 µM (inactive) throughout. The GI50 in the test on EKVX, in the test with CCRF-CEM, in the test on MOLT-4, in the test with SNB-19, in the test on LOX IMVI and in the test with HCT-116 was > 100 µM (inactive) each time. In the test with SNB-75, the GI50 is > 100 µM (inactive).

For the compound `NC(=O)c1cc2cc(Cl)cc(Cl)c2o/c1=N\c1ccc(F)cc1`, the GI50 with RXF 393 is 16.8 µM (inactive); in the test with A549 it was 19.3 µM (inactive); in the test with ACHN, 19.5 µM (inactive); in the test with HCC 2998 it was 21.1 µM (inactive); in the test with SF-295, 18.5 µM (inactive); in the test on COLO 205, 17.5 µM (inactive). Moreover, the GI50 in the test on U-251 was 19.6 µM (inactive); in the test with TK-10 it was 14.3 µM (inactive); with UO-31, 25.8 µM (inactive); in the test on RPMI-8226 it was 26.5 µM (inactive); with K562, 7.11 µM (inactive); in the test with EKVX, 15.2 µM (inactive). The GI50 in the test with CCRF-CEM is 56.8 µM (inactive); with MOLT-4, 12.5 µM (inactive); with SNB-19 it was 16.9 µM (inactive); with LOX IMVI, 27.6 µM (inactive); with SK-OV-3 it was 22.5 µM (inactive); in the test on HCT-116, 17.3 µM (inactive). Also, in the test with SNB-75, the GI50 is 14.8 µM (inactive).

As for `CCS(=O)(=O)CCn1c(=O)c2c(ncn2C)n(C)c1=O`, the GI50 with RXF 393, in the test on A549, in the test on SF-539, with ACHN, in the test with HCC 2998 and in the test with SF-295 was > 100 µM (inactive) each time. For the same compound, the GI50 in the test with COLO 205, in the test with U-251, in the test on TK-10, in the test on UO-31, in the test on RPMI-8226 and in the test on K562 was > 100 µM (inactive) each time. Also, the GI50 in the test with EKVX, in the test on CCRF-CEM, in the test with MOLT-4, in the test with SNB-19, with LOX IMVI and with HCT-116 was > 100 µM (inactive) throughout. In the test on SNB-75, the GI50 is > 100 µM (inactive).

For the origin of these results see ChEMBL document CHEMBL1201862, “PubChem BioAssay data set” (2004).
